In PMC7604503, “Cyclic peptides can engage a single binding pocket through highly divergent modes” (Proceedings of the National Academy of Sciences of the …, 2020):
Where a SMILES comes first, the peptide text is derived from it. Bridges are numbered along the chain shown (N, C = ends).

Columns and labels:
Assay in all cases: BROMOscan competition binding assay (BromoMAX, Eurofins DiscoverX)
TAF1(2) = biological target: T1, TAF1(2) (Homo sapiens, UniProt P21675); conditions: for Percent Control TAF1(2): compound concentration 1000 nM, lower percentage control = stronger affinity
T1 construct: TAF1(2); purchased Eurofins DiscoverX (BROMOscan, BromoMAX)
T1 sequence (P21675 1521-1656 limits assumed): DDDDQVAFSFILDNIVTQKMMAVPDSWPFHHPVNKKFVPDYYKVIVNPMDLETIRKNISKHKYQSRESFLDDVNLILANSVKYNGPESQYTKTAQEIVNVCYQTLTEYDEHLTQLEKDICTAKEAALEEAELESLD

TRIM24(PHD,Bromo.) = biological target: T2, TRIM24(PHD,Bromo.) (Homo sapiens, UniProt O15164); conditions: for Percent Control TRIM24(PHD,Bromo.): compound concentration 1000 nM, lower percentage control = stronger affinity
T2 construct: purchased Eurofins DiscoverX (BROMOscan, BromoMAX)
T2 sequence (O15164 824-1006 limits assumed): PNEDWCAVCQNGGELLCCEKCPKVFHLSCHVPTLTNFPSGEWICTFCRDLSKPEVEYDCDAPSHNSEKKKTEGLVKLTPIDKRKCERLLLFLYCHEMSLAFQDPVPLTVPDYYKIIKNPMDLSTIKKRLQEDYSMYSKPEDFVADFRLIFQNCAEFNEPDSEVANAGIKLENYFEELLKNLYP

TRIM33(PHD,Bromo.) = tested on: TRIM33(PHD,Bromo.); parameters: species or system human; conditions: compound concentration 1000 nM; lower percentage control = stronger affinity
ATAD2B = biological target: T3, ATAD2B (Homo sapiens, UniProt Q9ULI0); conditions: for Percent Control ATAD2B: compound concentration 1000 nM, lower percentage control = stronger affinity
T3 construct: purchased Eurofins DiscoverX (BROMOscan, BromoMAX)
T3 sequence (Q9ULI0 1-1458): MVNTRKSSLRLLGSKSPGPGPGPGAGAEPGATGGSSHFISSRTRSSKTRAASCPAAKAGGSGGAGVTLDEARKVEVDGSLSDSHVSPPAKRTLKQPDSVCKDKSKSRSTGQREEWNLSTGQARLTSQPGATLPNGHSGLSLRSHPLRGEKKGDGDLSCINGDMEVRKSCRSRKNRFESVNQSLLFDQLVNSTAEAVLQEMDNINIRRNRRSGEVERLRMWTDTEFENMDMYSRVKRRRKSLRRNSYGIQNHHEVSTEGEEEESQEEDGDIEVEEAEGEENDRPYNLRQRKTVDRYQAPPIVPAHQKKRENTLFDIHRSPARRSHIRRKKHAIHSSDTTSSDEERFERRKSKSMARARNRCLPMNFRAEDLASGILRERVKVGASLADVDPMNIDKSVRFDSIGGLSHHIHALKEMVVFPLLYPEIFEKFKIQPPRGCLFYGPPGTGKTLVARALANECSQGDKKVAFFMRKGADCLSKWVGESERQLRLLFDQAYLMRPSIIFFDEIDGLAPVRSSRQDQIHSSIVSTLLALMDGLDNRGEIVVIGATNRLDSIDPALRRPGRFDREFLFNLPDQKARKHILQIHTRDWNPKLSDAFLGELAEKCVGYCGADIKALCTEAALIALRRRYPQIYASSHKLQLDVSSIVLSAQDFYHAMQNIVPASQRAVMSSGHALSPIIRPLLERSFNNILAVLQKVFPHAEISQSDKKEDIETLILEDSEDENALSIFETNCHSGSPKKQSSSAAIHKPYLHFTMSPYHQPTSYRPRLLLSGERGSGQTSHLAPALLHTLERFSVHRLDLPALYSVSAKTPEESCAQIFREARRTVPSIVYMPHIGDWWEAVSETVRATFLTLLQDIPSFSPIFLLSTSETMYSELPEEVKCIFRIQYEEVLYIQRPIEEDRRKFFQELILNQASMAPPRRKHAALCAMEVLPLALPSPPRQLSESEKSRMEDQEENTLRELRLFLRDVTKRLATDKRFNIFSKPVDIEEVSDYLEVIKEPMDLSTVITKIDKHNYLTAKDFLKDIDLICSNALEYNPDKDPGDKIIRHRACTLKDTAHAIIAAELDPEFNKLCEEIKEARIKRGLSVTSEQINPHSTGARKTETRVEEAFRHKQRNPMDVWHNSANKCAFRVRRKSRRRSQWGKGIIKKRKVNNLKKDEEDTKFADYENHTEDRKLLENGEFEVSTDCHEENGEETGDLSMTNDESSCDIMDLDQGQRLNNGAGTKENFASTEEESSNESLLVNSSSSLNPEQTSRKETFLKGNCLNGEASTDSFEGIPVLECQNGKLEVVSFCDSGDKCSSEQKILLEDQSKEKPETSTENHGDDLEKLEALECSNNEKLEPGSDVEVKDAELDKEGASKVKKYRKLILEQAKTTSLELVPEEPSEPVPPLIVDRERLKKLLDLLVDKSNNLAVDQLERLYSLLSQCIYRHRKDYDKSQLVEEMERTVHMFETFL

| SMILES | Percent Control TAF1(2) (TAF1(2)) [%] | Percent Control TRIM24(PHD,Bromo.) (TRIM24(PHD,Bromo.)) [%] | Percent Control TRIM33(PHD,Bromo.) (TRIM33(PHD,Bromo.)) [%] | Percent Control ATAD2B (ATAD2B) [%] | percent of control binding at 1 µM (TAF1(2)) [%] | percent of control binding at 1 µM (TRIM24(PHD,Bromo.)) [%] | percent of control binding at 1 µM (ATAD2B) [%] |
| --- | --- | --- | --- | --- | --- | --- | --- |
| CC[C@H](C)[C@@H]1NC(=O)[C@H]([C@@H](C)O)NC(=O)[C@H](CCCCN)NC(=O)[C@H](Cc2c[nH]c3ccccc23)NC(=O)CSC[C@@H](C(N)=O)NC(=O)[C@H](CCC(N)=O)NC(=O)[C@H](CCCCNC(C)=O)NC(=O)[C@H]([C@@H](C)O)NC(=O)[C@H](CCCNC(=N)N)NC(=O)[C@H](Cc2c[nH]c3ccccc23)NC(=O)[C@H]([C@@H](C)O)NC(=O)[C@H](CCCCNC(C)=O)NC(=O)CNC(=O)[C@H](CCCCNC(C)=O)NC1=O [3.1B] ({CH2CO}-WKTIK(Ac)GK(Ac)TWRTK(Ac)QC-NH2; thioether N-14) | 82 | 91 | 100 | 100 | – | – | – |
| CC[C@H](C)[C@@H]1NC(=O)[C@H](Cc2c[nH]c3ccccc23)NC(=O)[C@H](Cc2c[nH]c3ccccc23)NC(=O)CSC[C@@H](C(N)=O)NC(=O)CNC(=O)[C@H](CCCCNC(C)=O)NC(=O)[C@H](CCCCN)NC(=O)[C@H](C(C)C)NC(=O)[C@H](CCCCNC(C)=O)NC(=O)[C@@H]2CCCN2C(=O)[C@H]([C@@H](C)CC)NC1=O [3.1C] ({CH2CO}-WWIIPK(Ac)VKK(Ac)GC-NH2; thioether N-11) | 79 | 94 | 100 | 100 | – | – | – |
| CC[C@H](C)[C@H](NC(=O)[C@H](CCCNC(=N)N)NC(=O)[C@H](CCCCNC(C)=O)NC(=O)[C@H](CCCNC(=N)N)NC(=O)[C@H](CC(C)C)NC(=O)[C@@H]1CSCC(=O)N[C@@H](Cc2c[nH]c3ccccc23)C(=O)N[C@@H](CCCCNC(C)=O)C(=O)NCC(=O)N[C@@H](Cc2ccc(O)cc2)C(=O)N[C@@H](CC(C)C)C(=O)N1)C(=O)N[C@@H](CCC(N)=O)C(=O)N[C@@H](CCCNC(=N)N)C(=O)N[C@H](C(=O)N[C@@H](Cc1ccc(O)cc1)C(=O)N[C@@H](CC(N)=O)C(N)=O)[C@@H](C)O [4.2C] ({CH2CO}-WK(Ac)GYLCLRK(Ac)RIQRTYN-NH2; thioether N-6) | – | – | 100 | – | 67 | 98 | 100 |
